This note sets out measurements from patent US8354441B2, “Oxazoline derivatives” (Hoffmann-La Roche Inc., priority 2009, dated 2013).

For one assay, the target named is T1, rat TAAR1 (Rattus norvegicus, UniProt Q923Y9).
T1 construct: expressed in transfected cells; host or cells: HEK293 (ATCC # CRL-1573), stably transfected with pIRESneo2 expression plasmid
The assay can be described thus: TAAR1 radioligand binding with [3H]-rac-2-(1,2,3,4-tetrahydro-1-naphthyl)-2-imidazoline, membranes of stably transfected HEK293 cells. Particulars: second value of the cell, read-out: Ki (μM) mouse/rat: rat. A digest of the protocol: (§1)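 Competition binding: competitors spanning 10 pM–30 μM displace 60 nM [3H]-rac-2-(1,2,3,4-tetrahydro-1-naphthyl)-2-imidazoline from stably transfected HEK293 membranes (mouse or rat receptor), 30 min, 4 °C, pH 7.0 buffer with Mg2+/Ca2+. Bound label counted after GF/C filtration; 10 μM unlabelled ligand defines non-specific binding.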

Another assay has as its target T2, mouse TAAR1 (Mus musculus, UniProt Q923Y8).
T2 construct: expressed in transfected cells; host or cells: HEK293 (ATCC # CRL-1573), stably transfected with pIRESneo2 expression plasmid
The assay is described as above. Particulars: first value of the cell, read-out: Ki (μM) mouse/rat: mouse. A digest of the protocol:
as §1

T1 sequence (Q923Y9 whole entry): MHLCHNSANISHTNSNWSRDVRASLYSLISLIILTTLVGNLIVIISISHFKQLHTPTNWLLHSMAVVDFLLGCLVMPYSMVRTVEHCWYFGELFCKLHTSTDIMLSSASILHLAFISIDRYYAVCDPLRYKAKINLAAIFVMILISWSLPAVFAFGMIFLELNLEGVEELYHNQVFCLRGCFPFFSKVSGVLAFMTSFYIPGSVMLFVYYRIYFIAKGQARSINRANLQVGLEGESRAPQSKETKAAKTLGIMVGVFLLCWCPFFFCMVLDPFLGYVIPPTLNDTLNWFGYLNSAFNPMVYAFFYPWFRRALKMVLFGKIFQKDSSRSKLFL
T2 sequence (Q923Y8 whole entry): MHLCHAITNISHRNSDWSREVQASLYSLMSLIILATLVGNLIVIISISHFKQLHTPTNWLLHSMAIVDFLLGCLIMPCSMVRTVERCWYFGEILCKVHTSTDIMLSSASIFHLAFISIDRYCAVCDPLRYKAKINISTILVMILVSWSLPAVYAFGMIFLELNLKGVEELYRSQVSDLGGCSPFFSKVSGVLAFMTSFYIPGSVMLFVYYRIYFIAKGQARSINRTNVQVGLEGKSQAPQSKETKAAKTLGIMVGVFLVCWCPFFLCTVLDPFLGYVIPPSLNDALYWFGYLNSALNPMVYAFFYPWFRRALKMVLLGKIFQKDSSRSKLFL

For the compound `CC(C)(C(=O)Nc1ccc(CC[C@H]2COC(N)=N2)cc1)c1ccc(Cl)cc1` [Example 72, N-{4-[2-((S)-2-Amino-4,5-dihydro-oxazol-4-yl)-ethyl]-phenyl}-2-(4-chloro-phenyl)-isobutyramide], the Ki at rat TAAR1 was 0.001 µM; on mouse TAAR1, 0.0008 µM.

For `NC1=N[C@@H](CCc2ccc(NC(=O)C3CCC(C(F)(F)F)CC3)cc2)CO1` (stereo partly drawn) [Example 79, 4-Trifluoromethyl-cyclohexanecarboxylic acid {4-[2-((S)-2-amino-4,5-dihydro-oxazol-4-yl)-ethyl]-phenyl}-amide], the Ki on rat TAAR1 was 0.0051 µM; on mouse TAAR1, 0.0057 µM.

Turning to `NC1=N[C@@H](CCc2ccc(NC(=O)Nc3ccc(Cl)cc3)cc2)CO1` [Example 3, 1-{4-[2-((S)-2-Amino-4,5-dihydro-oxazol-4-yl)-ethyl]-phenyl}-3-(4-chloro-phenyl)-urea], the values for the Ki on rat TAAR1 and on mouse TAAR1 were 0.0003 µM and 0.0002 µM, respectively.

As to `NC1=N[C@@H](CCc2ccc(NC(=O)C3CC(F)(F)C3)cc2)CO1` [Example 44, 3,3-Difluoro-cyclobutanecarboxylic acid {4-[2-((S)-2-amino-4,5-dihydro-oxazol-4-yl)-ethyl]-phenyl}-amide], the Ki at rat TAAR1 stood at 0.0014 µM; at mouse TAAR1 it was 0.0035 µM.

Consider `NC1=N[C@@H](CCc2ccc(NC(=O)C3CCCCC3)cc2)CO1` [Example 49, Cyclohexanecarboxylic acid {4-[2-((S)-2-amino-4,5-dihydro-oxazol-4-yl)-ethyl]-phenyl}-amide], for which the results for the Ki at rat TAAR1 and at mouse TAAR1 were 0.0036 µM and 0.0024 µM, respectively.

For `COc1ccc(C(=O)Nc2ccc(CC[C@H]3COC(N)=N3)cc2)cn1` [Example 97, N-{4-[2-((S)-2-Amino-4,5-dihydro-oxazol-4-yl)-ethyl]-phenyl}-6-methoxy-nicotinamide], the Ki came out at 0.0015 µM at rat TAAR1 and 0.0018 µM at mouse TAAR1.

For `NC1=N[C@@H](CCc2ccc(NC(=O)c3cc(F)cnc3F)cc2)CO1` [Example 107, N-{4-[2-((S)-2-Amino-4,5-dihydro-oxazol-4-yl)-ethyl]-phenyl}-2,5-difluoro-nicotinamide], the figures for the Ki on rat TAAR1 and at mouse TAAR1 were 0.0012 µM and 0.0014 µM, respectively.

As for `NC1=N[C@@H](CCc2ccc(NC(=O)c3cccnc3F)cc2)CO1` [Example 99, (S)-N-(4-(2-(2-amino-4,5-dihydrooxazol-4-yl)ethyl)phenyl)-2-fluoronicotinamide], the Ki was 0.0018 µM at rat TAAR1 and 0.0081 µM at mouse TAAR1.

As for `NC1=N[C@@H](CCc2ccc(NC(=O)c3ccnc(Cl)c3F)cc2)CO1` [Example 174, (S)-N-(4-(2-(2-Amino-4,5-dihydrooxazol-4-yl)ethyl)phenyl)-2-chloro-3-fluoroisonicotinamide], the Ki on rat TAAR1 stood at 0.0016 µM; on mouse TAAR1 it was 0.0035 µM.

Consider `NC1=N[C@@H](CCc2ccc(NC(=O)c3ccn(C(F)F)n3)cc2)CO1` [Example 195, (S)-N-(4-(2-(2-Amino-4,5-dihydrooxazol-4-yl)ethyl)phenyl)-1-(difluoromethyl)-1H-pyrazole-3-carboxamide], for which the Ki at rat TAAR1 worked out at 0.0023 µM; on mouse TAAR1, 0.0037 µM.

In the case of `COc1ccc(C(=O)Nc2ccc(CC[C@H]3COC(N)=N3)cc2)nc1Cl` [Example 168, (S)-N-(4-(2-(2-Amino-4,5-dihydrooxazol-4-yl)ethyl)phenyl)-6-chloro-5-methoxypicolinamide], the Ki on rat TAAR1 came out at 0.0009 µM; on mouse TAAR1 it was 0.0014 µM.

For `NC1=N[C@@H](CCc2ccc(NC(=O)c3cc(Cl)ccn3)cc2)CO1` [Example 90, 4-Chloro-pyridine-2-carboxylic acid {4-[2-((S)-2-amino-4,5-dihydro-oxazol-4-yl)-ethyl]-phenyl}-amide], the values for the Ki on rat TAAR1 and at mouse TAAR1 were 0.0003 µM and 0.0007 µM, respectively.

Regarding `NC1=N[C@@H](CCc2ccc(NC(=O)c3ccc(F)nc3)cc2)CO1` [Example 121, (S)-N-(4-(2-(2-Amino-4,5-dihydrooxazol-4-yl)ethyl)phenyl)-6-fluoronicotinamide], the Ki at rat TAAR1 came out at 0.0046 µM; on mouse TAAR1 it was 0.0032 µM.
